Reference: patent US5374645A (Ciba-Geigy Corporation, priority 1993, dated 1994)
Read-outs that look alike come from different tables or passages of the source.

Columns and labels:
Rabbits = details: rabbit, in vivo
[1] = not given; remark: listed apart in the source

Structure (SMILES)	classification as primary irritant or corrosive by dermal application (Rabbits)	Terbutaline Flux (pH 3.8) [mcg/cm^2 /hr]	relative flux (flux in water case as unity) (pH 3.8)	Terbutaline Flux (pH 4.4) [mcg/cm^2 /hr]	relative flux (flux in water case as unity) (pH 4.4)	Terbutaline Flux (pH 4.6) [mcg/cm^2 /hr]	relative flux (flux in water case as unity) (pH 4.6)	Terbutaline Flux (pH 4.9) [mcg/cm^2 /hr]	relative flux (flux in water case as unity) (pH 4.9)	Terbutaline Flux (pH 5) [mcg/cm^2 /hr]	relative flux (flux in water case as unity) (pH 5)	Terbutaline Flux ([1]; pH 3.8) [mcg/cm^2 /hr]	relative flux (flux in water case as unity) ([1]; pH 3.8)	Terbutaline Flux ([1]; pH 4.2) [mcg/cm^2 /hr]	relative flux (flux in water case as unity) ([1]; pH 4.2)
CC(C)O [Isopropanol, isopropanol]	neither pure isopropanol nor aqueous isopropanol are classified as primary irritants or as corrosives	–	–	–	–	–	–	–	–	–	–	–	–	–	–
CC(C)(C)NCC(O)c1cc(O)cc(O)c1 (stereo not drawn) [Terbutaline, terbutaline]	–	0.1	1	16.3	163	12.8	128	16.1	161	5.3	53	0.1	1	4.1	40
